Here are results for one compound from ChEMBL document CHEMBL2074166, “Transport of fluorescein in MDCKII-MRP1 transfected cells and mrp1-knockout mice” (Biochem Biophys Res Commun, 2001).

The target in this series is Multidrug resistance-associated protein 1 (Homo sapiens, UniProt P33527). The series can be described thus: TP_TRANSPORTER: intracellular accumulation in MRP1-expressing MDCKII cells. In kind it is functional, cell-based. To be noted: dog, mdck-ii.
Multidrug resistance-associated protein 1, sequence (P33527 whole entry): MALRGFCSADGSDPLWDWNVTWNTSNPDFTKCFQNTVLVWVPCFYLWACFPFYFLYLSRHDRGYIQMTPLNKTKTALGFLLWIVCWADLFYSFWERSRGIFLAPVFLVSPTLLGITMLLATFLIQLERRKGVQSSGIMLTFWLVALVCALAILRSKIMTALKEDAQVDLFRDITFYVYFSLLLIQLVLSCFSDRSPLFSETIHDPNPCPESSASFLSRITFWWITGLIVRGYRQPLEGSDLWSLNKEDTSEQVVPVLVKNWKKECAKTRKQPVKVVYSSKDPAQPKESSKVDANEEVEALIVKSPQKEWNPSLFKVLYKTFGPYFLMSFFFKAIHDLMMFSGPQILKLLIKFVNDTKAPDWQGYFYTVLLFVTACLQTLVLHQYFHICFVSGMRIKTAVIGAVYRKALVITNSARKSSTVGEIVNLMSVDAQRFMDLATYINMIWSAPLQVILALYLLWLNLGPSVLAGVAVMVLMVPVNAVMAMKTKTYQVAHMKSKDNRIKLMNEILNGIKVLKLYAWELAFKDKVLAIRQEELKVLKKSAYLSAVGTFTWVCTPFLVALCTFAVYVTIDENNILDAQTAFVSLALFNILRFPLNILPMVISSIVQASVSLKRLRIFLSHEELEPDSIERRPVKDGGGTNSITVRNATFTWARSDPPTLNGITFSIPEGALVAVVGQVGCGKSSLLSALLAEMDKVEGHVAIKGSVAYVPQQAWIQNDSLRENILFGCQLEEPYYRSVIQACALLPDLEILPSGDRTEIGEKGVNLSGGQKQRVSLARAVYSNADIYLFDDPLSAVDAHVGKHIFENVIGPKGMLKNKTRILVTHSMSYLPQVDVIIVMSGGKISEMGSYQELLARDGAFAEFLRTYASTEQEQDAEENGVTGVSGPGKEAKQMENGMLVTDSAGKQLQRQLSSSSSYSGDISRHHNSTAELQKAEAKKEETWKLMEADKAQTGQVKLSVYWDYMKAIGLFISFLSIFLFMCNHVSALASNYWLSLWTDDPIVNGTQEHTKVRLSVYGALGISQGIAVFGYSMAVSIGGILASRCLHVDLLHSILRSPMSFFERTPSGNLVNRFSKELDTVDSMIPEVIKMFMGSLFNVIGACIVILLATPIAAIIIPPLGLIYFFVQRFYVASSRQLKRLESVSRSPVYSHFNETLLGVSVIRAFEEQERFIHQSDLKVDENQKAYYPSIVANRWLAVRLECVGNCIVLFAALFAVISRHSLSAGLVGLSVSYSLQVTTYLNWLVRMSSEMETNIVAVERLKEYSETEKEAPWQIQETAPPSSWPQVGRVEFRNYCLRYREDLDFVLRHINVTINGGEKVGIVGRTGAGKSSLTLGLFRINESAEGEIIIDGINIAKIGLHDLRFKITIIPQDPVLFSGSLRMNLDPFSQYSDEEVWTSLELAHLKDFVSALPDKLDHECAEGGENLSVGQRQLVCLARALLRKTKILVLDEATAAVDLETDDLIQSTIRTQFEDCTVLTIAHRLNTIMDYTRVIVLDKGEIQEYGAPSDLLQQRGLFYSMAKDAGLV

Regarding `O=C1OC2(c3ccc(O)cc3Oc3cc(O)ccc32)c2ccccc21` [FLUORESCEIN], the Activity entry is “substrate [+]”.
